{"source": "patent US20230042176A1", "about": "“METHOD FOR TREATING ANGELMAN SYNDROME AND RELATED DISORDERS” (priority 2019, published 2023)", "key": {"[1]": {"system": "BK protein level in HEK293 cells", "assay": "BK protein level in HEK293 cells overexpressing UBE3A (immunoblotting)", "format": "cell-based, human", "conditions": "proteasome inhibitor 1 μM", "description": "Induced neurons or cortical organoids were lysed in RIPA buffer supplemented with protease and phosphatase inhibitor cocktails. Protein samples were loaded onto 8-12% Bis-TRIS (NP0322BOX Invitrogen) and were transferred onto a PVDF membrane. After blocking with 5% milk in TBS-T buffer for 1 hour, PVDF membranes were incubated with primary antibodies overnight at 4° C., followed by 1-hour incubation with mouse or rabbit HRP antibody (1:2000, Invitrogen) at RT. Images were visualized by either chemiluminescence or NIR fluorescent detection using c600 Imaging System (Azure Biosystems Inc). HEK293 cells were grown in DMEM (Sigma) containing 10% FBS (Gibco) and 100 U/mL penicillin-streptomycin (Gibco) in a 5% CO2 incubator. Cells were transfected with a Lipofectamine PLUS (Invitrogen), subsequently were treated with 1 μM of MG132 (A.G Scientific) for another 24 h. Next, cells were lysed in PBS containing 1% SDS (Invitrogen), 1 mM PMSF (USB), 10 μg/ml aprotinin (Roche), and 1% (v/v) phosphatase inhibitor cocktail 2 and 3 (Sigma)."}, "[2]": {"system": "healthy human volunteers", "conditions": "i.v. infused for 1 hour; cited from earlier work"}, "[3]": {"system": "neurons of WT and UBE3A KO cortical organoids", "assay": "Whole cell and perforated patch clamp recordings of neurons in human cortical organoids", "format": "cell-based", "conditions": "for changes in neuronal excitability, fAHP, and network hyperactivity and synchronization in human cortical organoids from UBE3A knockout stem cells: summary statement", "description": "Cortical organoids were generated based on a published protocol (Pasca et al., Nat Methods 12, 671-678 (2015)) with minor modifications. hPSCs were dissociated to single cells by TrypLE Express (Thermofisher) and seeded into U-shaped ultra-low attachment 96-well plate (Corning) at a density of 6K cells/well in the presence of thiazovivin (5 μM, Tocris). After spheroid formation, media were completely changed to Neural Induction Media (NIM: DMEM/F12 (Nacalai Tesque), 20% KnockOut Serum Replacement (Thermofisher), 1% minimum essential media-nonessential amino acid (Thermofisher), 1% GlutaMax (Thermofisher), 1% Antibiotic-Antimycotic (Thermofisher), 0.1% β-mercaptoethanol (Thermofisher), 5 μM Dorsomorphin (Tocris), 10 μM SB431542 (Stemgent)) for the next 6 days, with media change every other day. Starting day 7, media were changed to Neural Growth Media (NGM: Neurobasal (Thermofisher), 1:50 B27 without vitamin A (Thermofisher), 1% GlutaMAX (Thermofisher), 1% Antibiotic-Antimycotic (Thermofisher), 20 ng/ml EGF (PeproTech), 20 ng/ml FGF-basic (PeproTech)) for the next 18 days, with media change every other day. Starting day 25, organoids were transferred out of 96-well plates to 6-well plates (6-8 organoids per well), cultured in Organoid Media I (OMI: Neurobasal (Thermofisher), 1:50 B27 without vitamin A (Thermofisher), 1% GlutaMax (Thermofisher), 1% Antibiotic-Antimycotic (Thermofisher), 10 mM HEPES (Thermofisher), 10 ng/ml BDNF (PeproTech), 10 ng/ml NT3 (PeproTech)) until day 100 on an orbital shaker (75 rev/min). After day 100, media were changed to Organoid Media II (OMII: BrainPhys (Stemcell Technologies), 1:50 SM1 (Stemcell Technologies), 1% GlutaMax (Thermofisher), 1% Antibiotic-Antimycotic (Thermofisher), 10 mM HEPES (Thermofisher), 10 ng/ml BDNF (PeproTech), 10 ng/ml GDNF (PeproTech), 10 ng/ml NT3 (PeproTech), 100 μM db-cAMP (Sigma)).\n(§1) Whole cell patch clamp recordings of neurons in the organoid (wholemount) and acute mouse hippocampal slices were performed in a recording chamber (RC-26GLP, Warner Instruments) and submerged under continuously perfused artificial CSF (aCSF) containing (in mM): 119 NaCl, 2.5 KCl, 11 glucose, 26 NaHCO3, 1.25 NaH2PO4, 2.5 CaCl2 and 2 MgCl2 saturated with 95% O2 and 5% CO2 at 30-32° C. Neuronal intrinsic excitability was measured in the presence of CNQX (20 μM, Tocris) and APV (50 μM, Tocris) to block all excitatory synaptic responses. We targeted neurons near the surface of organoids with reasonably pyramidal-shaped cell bodies under our DIC/IR camera. […] Signals were recorded using a MultiClamp 700B amplifier, filtered at 2 kHz using a Bessel filter, and digitized at 40 kHz with a Digidata 1550B analog-to-digital (A/D) board (Molecular Devices, Sunnyvale, Calif.). […]"}, "[4]": {"system": "WT and UBE3A KO human induced neurons", "assay": "Whole cell patch clamp recordings of human induced neurons (fAHP amplitude, AP firing frequency)", "format": "cell-based"}, "[5]": {"system": "WT and Ube3a m-/p+ mice", "format": "in vivo, mouse", "conditions": "for seizure grade based on Racine's scale: no paxilline", "description": "[…]. Seizure severity of mice was dependent on multiple variables such as picrotoxin dose, mice age, and their body weights. […] Videos were recorded for all the behavioural experiments. Behavioral analysis was performed in a double-blind manner with littermates (siblings of wild-type (Ube3a^m+/p+) and maternal knockout (Ube3a^m−/p+) mice that produced from same pairs of Ube3a^m+/p− females and Ube3a^m+/p+ males)."}, "[6]": {"system": "WT and UBE3A KO cortical organoids", "assay": "Two-photon calcium imaging of cortical organoids", "format": "cell-based, human", "conditions": "paxilline 10 μM"}, "[7]": {"system": "WT and KO mice"}, "[8]": {"system": "WT and Ube3a m-/p+ mice", "assay": "In vivo local field potential (LFP) recording in freely moving mice", "design": "species or system mouse", "conditions": "paxilline 0.35 mg/kg, 4 times with 1-hour interval", "description": "[…]. Eye cream was applied to a mouse to protect the eye from drying due to anaesthesia. 2% lidocaine was injected under the scalp and subsequently scalp was removed to expose the skull. […] Stereotrodes were made with platinum-iridium wire (90%:10%, A-M system) and unilaterally implanted into BIC. Stainless steel screw (AP: 2 mm, Lateral: 2 mm) was used as a reference electrode. Iodopavidone was applied for disinfection around the surgical area after dental cement mounting. Mice were maintained on a heating pad at 37° C. until waking from the anaesthesia before putting back to home cages. LFP recordings were performed on the mice 5 days after surgery. LFP recordings were conducted in a copper-Faraday chamber. For evoked LFP, auditory stimulus (˜125 dB, 500 Hz) was provided by a speaker (EKX, Electro-Voice) driven by a customized program in Matlab. LFP was recorded with sampling rate at 500 Hz and filtered with 0.5 Hz high-pass and 100 Hz low-pass by EEG/EMG recording system (Pinnacle). […] Video was recorded simultaneously for further analysis. After all recordings, mice were sacrificed, and their brains were isolated and fixed using 4% PFA in PBS and the implanted electrode locations were confirmed by either bright field imaging or DAPI staining and subsequent fluorescence imaging."}, "[9]": {"system": "hippocampal neurons of WT and Ube3a m-/p+ mice", "assay": "Whole cell patch clamp recordings in acute mouse hippocampal slices", "format": "cell-based", "conditions": "paxilline, postnatal day 28", "description": "as §1\nFor fAHP analysis in all recordings, automatic detection and calculation was conducted by customized matlab scripts adapted from published algorithm (Bean, Nat Rev Neurosci 8, 451-465 (2007); Platkiewicz and Brette, PLoS Comput Biol 6, e1000850 (2010); Yu et al., J Neurosci 28, 7260-7272 (2008)). […] The fAHP amplitude of each neuron was calculated by averaging the fAHP of the first spike in all current injection steps. […]"}, "[10]": {"system": "WT and Ube3a m-/p+ mice", "assay": "Flurothyl-induced seizures", "format": "in vivo, mouse", "conditions": "paxilline pre-treatment 0.35 mg/kg i.p.; flurothyl 100 μl/min", "text": "Chamber was cleaned and the tissue paper was replaced before each new trial."}}, "note": "“Also recorded” adds a separate entry of the source. Where two headings read alike, the source gives them in different places. Peptide text beside a SMILES is read from it. * marks the point of attachment. Cbz = O=C(OCc1ccccc1)*"}
{"molecule": "CC(C)C[C@@H](C=O)NC(=O)[C@H](CC(C)C)NC(=O)[C@H](CC(C)C)NC(=O)OCc1ccccc1", "note": "[MG312] (Cbz-Leu-Leu-Leu-aldehyde)", "values": [{"measurement": "decrease in the BK protein level caused by UBE3A coexpression", "setting": "[1]", "value": "abolished"}]}
{"molecule": "CCCNc1nc(NCCC)nc(N(C)OC)n1", "note": "[GAL-021, 2-N-methoxy-2-N-methyl-4-N,6-N-dipropyl-1,3,5-triazine-2,4,6-triamine]", "values": [{"measurement": "tolerated i.v. infusion dosage", "setting": "[2]", "value": "0.1 to 0.96", "unit": "mg/kg/h"}, {"measurement": "changes in neuronal excitability, fAHP, and network hyperactivity and synchronization in human cortical organoids from UBE3A knockout stem cells", "setting": "[3]", "value": "normalized"}, {"measurement": "fAHP amplitude in KO hINs", "setting": "[4]; GAL-021 50 μM or 100 μM, KO neurons", "value": "lowered"}, {"measurement": "fAHP amplitude (and AP firing frequencies) in WT hINs", "setting": "[4]; GAL-021 50 μM or 100 μM, WT neurons", "value": "did not change; also recorded: did not affect"}, {"measurement": "spike frequency and fAHP in KO neurons compared with WT hINs", "setting": "[4]; GAL-021 100 μM", "value": "Restoration"}, {"measurement": "fAHP amplitude in KO hINs", "setting": "[4]; GAL-021 200 μM, KO neurons", "value": "not significantly different from that of 100 μM"}, {"measurement": "fAHP amplitude in KO hINs", "setting": "[4]; GAL-021 200 μM, KO neurons, listed as GAL021", "value": "normalized fAHP"}, {"measurement": "fAHP amplitude in WT hINs", "setting": "[4]; GAL-021 200 μM, WT neurons", "value": "lowered"}, {"measurement": "fAHP amplitude in WT hINs", "setting": "[4]; GAL-021 200 μM, WT neurons, listed as GAL021", "value": "decreased fAHP"}, {"measurement": "differences in fAHP amplitude and AP firing frequency between KO and WT neurons", "setting": "[4]; GAL-021 50 or 100 μM", "value": "normalized"}, {"measurement": "intrinsic excitability associated with augmented fAHP in UBE3A-deficient human neurons", "setting": "[4]; GAL-021 application (50, 100, 200 μM tested)", "value": "returns to normal"}]}
{"molecule": "picrotoxin", "values": [{"measurement": "seizure grade based on Racine's scale", "setting": "[5]; picrotoxin 3 mg/kg i.p., Ube3a m-/p+ mice", "value": 5, "unit": "grade"}, {"measurement": "seizure grade based on Racine's scale", "setting": "[5]; picrotoxin 3 mg/kg i.p., WT mice", "value": "1-2 grade"}]}
{"molecule": "CC(C)(O)[C@H]1O[C@H]2CC[C@@]3(C)[C@@](O)(CC[C@H]4Cc5c([nH]c6ccccc56)[C@@]43C)C2=CC1=O", "note": "[Paxilline, (2R,4bS,6aS,12bS,12cR,14aS)-4b-hydroxy-2-(1-hydroxy-1-methylethyl)-12b,12c-dimethyl-5,6,6a,7,12,12b,12c,13,14,14a-decahydro-2H-chromeno[5′,6′:6,7]indeno[1,2-b]indol-3(4bH)-one]", "values": [{"measurement": "frequencies and amplitudes of calcium transients in the organoids", "setting": "[6]", "value": "decreased both the frequencies and the amplitudes"}, {"measurement": "higher levels of network synchronization in KO and AS iPSC-derived organoids", "setting": "[6]", "value": "abolished"}, {"measurement": "seizure susceptibility in KO mice", "setting": "[5]; paxilline high dose 3 mg/kg, KO mice", "value": "responded positively"}, {"measurement": "seizure susceptibility in WT mice", "setting": "[5]; paxilline high dose 3 mg/kg, WT mice", "value": "increased seizure susceptibility"}, {"measurement": "seizure grade of Ube3a m-/p+ mice versus WT mice", "setting": "[5]; paxilline pre-treatment 0.35 mg/kg i.p., picrotoxin 3 mg/kg i.p.", "value": "normalize"}, {"measurement": "seizures caused by paxilline", "setting": "[7]; 10 mg/kg paxilline, WT and KO mice", "value": "caused seizures"}, {"measurement": "tremor in WT mice", "setting": "[7]; paxilline 3 mg/kg compared to 0.35 mg/kg, WT mice", "value": "induced tremor"}, {"measurement": "tremor in KO mice", "setting": "[7]; paxilline 3 mg/kg, KO mice", "value": "not evident"}, {"measurement": "enhancement in the delta band (1-4 Hz) of LFP in Ube3a m-/p+ mice", "setting": "[8]", "value": "normalized"}, {"measurement": "changes in excitability and higher fAHP in neurons from Ube3a m-/p+ mice", "setting": "[9]", "value": "normalized"}, {"measurement": "reduction in the latency to myoclonic seizure in Ube3a m-/p+ mice", "setting": "[10]", "value": "normalized"}, {"measurement": "augmented neuronal excitability and fAHP changes in neurons of KO organoids", "setting": "[3]; paxilline 10 μM, KO organoids", "value": "normalized"}, {"measurement": "spontaneous burst firing in neurons of UBE3A KO organoids", "setting": "[3]; paxilline 10 μM, perforated patch recordings, KO organoids", "value": "completely converted spontaneous burst firing into single AP firing"}, {"measurement": "changes in neuronal excitability, fAHP, and network hyperactivity and synchronization in human cortical organoids from UBE3A knockout stem cells", "setting": "[3]", "value": "normalized"}, {"measurement": "differences in fAHP amplitude and AP firing frequency between KO and WT neurons", "setting": "[4]; 5 μM paxilline", "value": "normalized"}, {"measurement": "excitability and fAHP in KO neurons", "setting": "[4]; 5 μM paxilline, KO neurons", "value": "successfully restored excitability and fAHP to WT levels"}, {"measurement": "fAHP in WT neurons", "setting": "[4]; 20 μM paxilline, WT neurons", "value": "significantly lowered fAHP"}, {"measurement": "fAHP in WT neurons", "setting": "[4]; paxilline 5 μM, WT neurons", "value": "did not significantly reduce the fAHP"}]}
